Assay results taken from US20240016245A1, “ANTIMICROBIAL FACEMASK” (BMG (British Medical Group) Limited, priority 2020, published 2024).

Assay: Compatibility of surfactants with copper sulfate solutions for coating fabric
Format: physicochemical

Compound	precipitation from copper sulfate solutions / solution suitable for coating	solubility in solutions of copper sulfate (in solutions of copper sulfate)
CCCCCCCCCCCC[N+](C)(C)[O-] [dimethyl dodecylamine N-oxide]	causing precipitation	
CCCCCCCCCCCC[N+](C)(C)CC(=O)O [dimethyl dodecylglycine betaine]	did not cause precipitation	
CCCCCCCCCCCC[N+](C)(C)CCCS(=O)(=O)O [lauryl sulfobetaine]	did not cause precipitation	
CCCCCCCCCCCCOS(=O)(=O)[O-].[Na+] [sodium dodecylsulfate]	acceptable solution for coating	
sodium dodecylbenzenesulfonate		very low and insufficient solubility
